Source: a melting point compilation (Tetko et al.; mined from patent text by program, amines drawn as free bases though some values may be those of a salt)

Row | melting point [°C] | Compound
1 | 72.3 to 74.6 | CCCN(CCC)c1c(CC)nn2c(-c3c(C)cc(C)cc3OC)cccc12
2 | 180 to 195 | C[C@@H](NC(=O)c1c[nH]c2ncc(-c3nn(C)c4cc(C(C)(C)C)ccc34)nc12)C(=O)N1CC(C#N)C1
3 | > 250 | Cc1c(O)cc(N)cc1C(=O)O
4 | 122 to 124 | CCc1cc(C(=O)Nc2ccccc2)on1
5 | 150 to 153 | CN1CCc2cc(O)c(O)cc2C1C1(c2ccc3ccccc3c2)CCC1 (stereo not drawn)
6 | 136 to 138 | CC(=O)Nc1ccccc1N1CCc2cc(Cl)ccc21
7 | 142 to 145 | COc1ccc(S(=O)(=O)C2(C(=O)O)CCN(CC=C(C)C)CC2)cc1
8 | 129 | CCOC(=O)Nc1cc(N(C(=O)OCC)S(C)(=O)=O)c(C#N)cc1F
9 | > 250 | O=C1Nc2c(Cl)cccc2C12COc1cc3c(cc12)CCO3 (stereo not drawn)
10 | 205 to 207 | CC(=NNc1nc(Cl)c(-c2c(F)cc(F)cc2F)c(NC(C)C(F)(F)F)n1)C(F)(F)F (stereo not drawn)
11 | 178 | CCOC(=O)Nc1cc(Oc2ncccn2)c(Br)cc1F
12 | 105 to 107 | CC(C)(C)OC(=O)/C=C1\CCc2cccc3c2N1CC3
13 | 190 to 192 | Cc1cc2c(cc1C1=NNC(=O)CC1C)N(C)C(=O)C(C)O2 (stereo not drawn)
14 | 224 to 225 | Nc1nc(N)c2cc(Cc3ccc(Cl)cc3)ccc2n1
15 | 250 | CCC(C(=O)C(C)C(O)C(C)CCc1ccc(C)c(O)c1C(=O)O)C1OC(CC)(C2CCC(O)(CC)C(C)O2)CC1C (stereo not drawn)
16 | 253 to 255 | CN1C(=O)C2=C(c3ccc([N+](=O)[O-])cc3)OC(=O)C2=C1c1ccccc1
17 | 129 to 130 | COCNc1c(C#N)cnn1-c1ccc(Cl)c(Cl)c1Cl
18 | 89 to 92 | CC(=O)OC1CSC(Oc2cccnc2C(=O)N2CCCCC2)C(OC(C)=O)C1OC(C)=O (stereo not drawn)
19 | 144 to 145 | CCOC(=O)C1=C(COCCNc2nc(N)n[nH]2)NC(C)=C(C(=O)OC)C1c1cccc(C(F)(F)F)c1Cl (stereo not drawn)
20 | 135 to 136 | NC(=NCC(F)(F)F)Nc1ccnc(CCCCO)n1
21 | 46 to 48 | CCCCCCNc1ccc(N=O)cc1
22 | 195 to 196 | O=c1[nH]c2ccc(-c3cccc(Cl)c3)cc2s1
23 | 262 to 267 | CC(=O)Nc1c(C(C)=O)[nH]c2cc(Cl)ccc12
24 | 114 to 115 | CC(=O)c1ccc(CCOc2ccc(CC3SC(=O)NC3=O)cc2)nc1 (stereo not drawn)

Row | melting point [°C] | Compound
25 | 74 to 75 | COc1ccc(COC(=O)c2cc([N+](=O)[O-])c3ccccc3c2OS(=O)(=O)C(F)(F)F)cc1
26 | 158 to 160 | Cc1cc(F)ccc1-c1cscc1-c1ccc(S(C)(=O)=O)cc1
27 | 232 to 234 | Nc1ncccc1C(=O)NCCCOc1ccc(-c2ccc(=O)[nH]n2)cc1
28 | 122 | COCOc1cc(C(=O)O)ccc1-c1ccc(-c2ccccc2)c(-c2ccc3c(c2)C(C)(C)CCC3(C)C)c1
29 | 162 to 165 | CSc1ccc2c(SCc3ccc(N(CCO)CCO)cc3)ccnc2c1
30 | 192 to 194 | CCCCCCS(=O)(=O)c1c(Br)cc(N)cc1Br
31 | 76 to 78 | CCCC(=O)c1cnc2c(OCCCN3CCCCC3)cccc2c1Nc1ccccc1C
32 | 121 to 123 | CCCCN1CC(=O)C(C(=O)OCC)C1=O (stereo not drawn)
33 | 112 to 114 | CCN(c1ccc(C#N)cc1Cl)S(=O)(=O)c1ccc(C)cc1
34 | 116 to 117 | O=C1NCCc2ccc(OCCCN3CCCN(c4cccc(Cl)c4Cl)CC3)cc21
35 | 156 to 158 | CCOc1nn(-c2ccc(C(F)(F)F)cn2)cc1CCOc1cc(CC(=O)O)n(C)n1
36 | 150 to 151 | FC(F)(F)c1ccc(OCCCc2cn(C(c3ccccc3)(c3ccccc3)c3ccccc3)cn2)cc1
37 | 170 to 172 | CNS(=O)(=O)Nc1ccc(OCC2CCN(c3ccncc3)CC2)cc1
38 | 213 | COc1ccc(C=CC(=O)N2CCc3c([nH]c4ccccc34)C2c2ccc3c(c2)OCO3)cc1O (stereo not drawn)
39 | 168 to 170 | OCC1CCCc2c1ncn2C(c1ccccc1)(c1ccccc1)c1ccccc1 (stereo not drawn)
40 | 160 to 162 | CC(C)(C)OC(=O)NC1CCCOCC=CC2CC2(C(=O)NS(=O)(=O)C2CC2)NC(=O)C2CC(OC(=O)c3ccc(-c4ccccc4)cc3)CN2C1=O (stereo not drawn)
41 | 169 to 171 | Cc1ccc(-c2cc(C#N)c[nH]2)cc1
42 | 281 to 282 | Cc1nc(N)[nH]c(=O)c1N1CCN(c2ccc(CN)cc2)CC1
43 | 87 to 90 | Cc1oc(-c2ccccc2)nc1CCOc1ccc(CC(Nc2ccccc2C(=O)c2cccc(CO)c2)C(=O)O)cc1 (stereo not drawn)
44 | 168 | Cc1ccc(S(=O)(=O)Oc2ccc(S(=O)(=O)c3c(-c4ccccc4)cn4ccccc34)cc2)cc1
45 | 112 to 119 | COc1cc(NC(=O)c2cccc(CSc3cnccn3)c2)cc(OC)c1OC
46 | 110 to 114 | C=C(C)[C@@H]1CC[C@]2(C(=O)N[C@H]3C[C@@H](C(=O)N4CCCC4)C3(C)C)CC[C@]3(C)[C@H](CC[C@@H]4[C@@]5(C)CC[C@H](OC(=O)CC(C)(C)C(=O)O)C(C)(C)[C@@H]5CC[C@]43C)[C@@H]12
47 | 195 to 197 | COc1ccc(N(Cc2ccc(N(C)C)cc2)C(=O)C2CCCc3c(O)cccc32)cc1 (stereo not drawn)
48 | 140 to 142 | COc1ccc2sc(C(=O)O)nc2c1[N+](=O)[O-]

Row | melting point [°C] | Compound
49 | 136 to 140 | CCOC(=O)C1(NC(=O)CC)Cc2cccc3c2N(CCC3)C1=O (stereo not drawn)
50 | 232 to 234 | CC1(C)Oc2cc3nonc3cc2C(NC(=O)CCl)C1O (stereo not drawn)
51 | 103 to 105 | CC(C)(C)C(=O)Nc1c(F)cc(F)cc1Oc1ccc(C2(C#N)CCCC2)cc1
52 | 135 | COC=C(C(=O)OC)N(C)c1cccc(-c2ccc(Cl)cc2)n1
53 | 118 to 121 | COC(=O)c1nc2ccc(C=O)cc2cc1C
54 | 307 to 309 | O=c1[nH]cnc2ccc(C=Cc3ccncc3)cc12
55 | 121 to 123 | COc1ccc(Sc2cccc(C(=O)O)c2)cc1
56 | 75 to 80 | COC(=O)On1c(C(=O)OC)cc2c(C)ccc(C)c21
57 | 125 to 127 | CC(C)(C)OC(=O)Nc1cc(N2CCSCC2)c(I)cc1N
58 | 187 to 189 | COc1cc(OC)cc(C(=O)NC(NC(=NC#N)Nc2ccc(C(F)(F)F)nc2)C(C)(Cl)Cl)c1 (stereo not drawn)
59 | 131 to 132 | N#CCCCCCC(=NOCCNC(c1ccccc1)(c1ccccc1)c1ccccc1)c1ccc(Cl)c(Cl)c1
60 | 216 to 218 | CC(=O)OCCOc1ccc2oc3cc(-c4nnn[nH]4)ccc3c(=O)c2c1
61 | 68 to 70 | N#Cc1ccc(F)cc1C(F)(F)C(F)(F)c1ccccc1
62 | 178 to 181 | O=C1CCn2c3c(c4cccc1c42)CCN(C(=O)c1ccccc1)CC3
63 | 190 to 192 | Cc1cccc2[nH]c(C(=O)OC(C)C)c(Sc3ccc(Cl)cc3)c12
64 | 156 to 158 | COc1ccc2c(c1)Sc1cc(OC(C)=O)c3ccccc3c1N2
65 | 130 to 131 | O=C1CCN2C(=O)OCc3cccc1c32
66 | 178 to 179 | COc1cc2c3c(Br)cc(OC)c(OC)c3n(S(C)(=O)=O)c2cc1OC
67 | 181 to 183 | C=CCNc1nc(N)nc2c1ncn2C1C=CC(CO)C1 (stereo not drawn)
68 | 81 | CCCC(=O)c1cccc(NC(=O)C=C(C)OC)c1
69 | 115 | CC(C)(C)OC(=O)[C@@H]1CSC(C2CCCCC2)N1C(=O)CNC(=O)Nc1cccc(CC(=O)O)c1 (stereo partly drawn)
70 | 25 to 28 | CCCCCCCCCCCCCCCCSCC(C)(C)CO
71 | 265 | CCc1ccc2c(c1)C=Cc1sc(C)nc1C2c1cn(C)c(=O)[nH]c1=S (stereo not drawn)
72 | 50 | NCCC(=O)N(c1ccccc1)c1ccccc1

Row | melting point [°C] | Compound
73 | 191 to 192 | CS(=O)(=O)Nc1ccc(OC2CCN(c3ccncc3)CC2)cc1
74 | 222 to 227 | Nc1ccc(Sc2cccc3cnccc23)c([N+](=O)[O-])c1
75 | 186 | O=S(=O)(NCc1ccccc1)c1cc(F)c2cccnc2c1O
76 | 178 to 179 | O=C(N[C@@H](CN1CCC(=C2c3ccccc3C=Cc3ccccc32)CC1)C(=O)O)OCc1ccccc1
77 | 80 to 83 | CCC1(c2ccccc2)OC(c2ccc(-c3ccc(Cl)cc3)cc2)OC1=O (stereo not drawn)
78 | 82 to 85 | N#CCC1CCN1C(c1ccccc1)c1ccccc1 (stereo not drawn)
79 | 108 to 110 | COC(Cn1cncn1)(c1ccc(F)cc1F)C(F)(F)S(=O)(=O)CCO (stereo not drawn)
80 | 67 to 70 | O=Cc1ccc(Oc2ccc3c(c2)OCO3)cc1
81 | 154 to 156 | CC1(c2ccc3cc(C(O)c4cccnc4)ccc3c2)OCCO1 (stereo not drawn)
82 | 176 to 177 | COc1ccc(C(=O)Cc2ccccc2)c([N+](=O)[O-])c1O
83 | 140 | O=C(Cc1cccc2ccccc12)Nc1cc(C2CC(NC(=O)C3CC3c3ccccc3)C2)[nH]n1 (stereo not drawn)
84 | 150 to 153 | COc1ccc(C)cc1NC(=O)Nc1ccc(C2=CCN(C(=O)Nc3ccc(OCCO)cc3C(F)(F)F)CC2)cc1
85 | 97 | O=C(Oc1ccc(O)c([N+](=O)[O-])c1)c1ccccc1
86 | 195 | CCOc1cc2c(cc1OC(C)=O)C(=O)CC1C2CCC2(C)C(OC(C)=O)CCC12 (stereo not drawn)
87 | 187 to 191 | CS(=O)(=O)c1nc2cnc3cccnc3c2n1Cc1ccccc1
88 | 39 to 40 | CCCCS(=O)c1ncn(C(=O)N(CCC)CCC)n1 (stereo not drawn)
89 | 218 to 221 | CC(=O)N1CCC(NC(=O)Nc2ccccc2CCc2cc(C(C)(C)C)c(O)c(C(C)(C)C)c2)CC1
90 | 184 to 188 | Cc1cccc(C(=O)N(NC(=O)NS(=O)(=O)c2ccc(Cl)cc2)C(C)(C)C)c1
91 | 226 to 227 | Brc1nc(-c2cccnc2)[nH]c1Br
92 | 153 to 154 | CC(C)(C)c1cc(C(C)(C)C)c(N)cc1N
93 | 254 to 256 | Cc1cc(C)c2[nH]c(C(=O)O)cc2c1

Row | Compound | melting point [°C]
94 | Nc1ccc(Cl)c(N=C2NCCN2)c1 | 154 to 155
95 | CC1(C)CN(Cc2ccccc2)c2cc(Cl)cc(C(=O)NC3CN4CCC3CC4)c2O1 (stereo not drawn) | 174 to 175
96 | Cc1[nH]c2cccc3c2c1CC1C3=CC(C(=O)NN)CN1C (stereo not drawn) | 235 to 240
97 | CCCCCN(CCC12CC3CC(CC(C3)C1)C2)C(=O)NCCc1ccc(O)cc1 | 96.3 to 99.4
98 | CC1CN(C)CCC1(O)c1cc2ccccc2o1 (stereo not drawn) | 128 to 130
